Legend:
[1] = test system: acute traumatic or chronic wounds; test: Clinical study on 6 dogs with acute traumatic or chronic wounds with delayed healing; type: in vivo
Description: A clinical study of the effect of the combination used in the present invention was carried out on 6 dogs carrying inflammatory pathological conditions having led to acute traumatic or chronic wounds caused by lesion due to scratching with delayed healing.
The composition of the invention was applied in spray lotion form, twice a day, directly onto the wound to be treated. The results were observed 1 (D1), 2(D2), 3(D3), 5(D5) and 7(D7) days after the 1st application.

[2] = test system: traumatic or chronic wounds

In the case of `Nc1ccc(S(=O)(=O)Nc2ncccn2)cc1` [sulfadiazine], the “Rapidity of response to the applications” value ([1]; acute or chronic wounds, observed most commonly) is reported as “such a rapid response is never observed”, the “Effectiveness of treatments carried out previously” value ([1]; the 6 dogs, before the study) is reported as “ineffective” and the Effectiveness on healing [2] is reported as “not very effective”.

— patent US20140271881A1, “ANTISEPTIC COMPOSITION” (priority 2011, published 2014)
